Laboratory results published in PubChem BioAssay AID256 (DTP/NCI, 2004).
Several values for one entry are separate records, joined by “and”; a condition that tells them apart may be missing. Identical values can stand only once. Toxic doses and inconclusive results are not listed.

Test system: CD2F1 mice, L1210 leukemia ip, survival T/C
Experiment: NCI In Vivo Anticancer Drug Screen. Data for tumor model L1210 Leukemia (intraperitoneal) in CD2F1 (CDF1) mice
Conditions: higher = longer survival
Procedure, shortened: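 Ratio T/C, where T is the treated-group value and C the vehicle-dosed control value, from mice implanted with a transplantable tumor.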

[1] = endpoint: mean survival time, dose: 50.0 mg/kg/injection, schedule: Q01DX001 (ip), vehicle: carboxymethylcellulose (CMC)
[2] = endpoint: mean survival time, dose: 100.0 mg/kg/injection, schedule: Q01DX001 (ip), vehicle: carboxymethylcellulose (CMC)

## CC(Br)C(=O)c1ccc2ncccc2c1 (stereo not given)
endpoint: mean survival time, dose: 12.5 mg/kg/injection, schedule: Q04DX002 (ip), vehicle: saline + alcohol
  T/C: 98 % of control
endpoint: mean survival time, dose: 25.0 mg/kg/injection, schedule: Q04DX002 (ip), vehicle: saline + alcohol
  T/C: 101 % of control
endpoint: mean survival time, dose: 50.0 mg/kg/injection, schedule: Q04DX002 (ip), vehicle: saline + alcohol
  T/C: 95 % of control

## CCC1OCC(C(Cl)CCl)O1 (stereo not given)
endpoint: mean survival time, dose: 12.5 mg/kg/injection, schedule: Q01DX009 (ip), vehicle: Klucel (hydroxypropylcellulose) (HPC)
  T/C: 94 % of control and 101 % of control
endpoint: mean survival time, dose: 25.0 mg/kg/injection, schedule: Q01DX009 (ip), vehicle: Klucel (hydroxypropylcellulose) (HPC)
  T/C: 99 % of control and 102 % of control
endpoint: mean survival time, dose: 50.0 mg/kg/injection, schedule: Q01DX009 (ip), vehicle: Klucel (hydroxypropylcellulose) (HPC)
  T/C: 95 % of control and 96 % of control
endpoint: mean survival time, dose: 100.0 mg/kg/injection, schedule: Q01DX009 (ip), vehicle: Klucel (hydroxypropylcellulose) (HPC)
  T/C: 94 % of control and 107 % of control
endpoint: mean survival time, dose: 200.0 mg/kg/injection, schedule: Q01DX009 (ip), vehicle: Klucel (hydroxypropylcellulose) (HPC)
  T/C: 90 % of control and 91 % of control
endpoint: mean survival time, dose: 400.0 mg/kg/injection, schedule: Q01DX009 (ip), vehicle: Klucel (hydroxypropylcellulose) (HPC)
  T/C: 87 % of control

## CN=NC1(OC(C)=O)CCCC1
endpoint: mean survival time, dose: 3.12 mg/kg/injection, schedule: Q01DX009 (ip), vehicle: saline
  T/C: 109 % of control
endpoint: mean survival time, dose: 6.25 mg/kg/injection, schedule: Q01DX009 (ip), vehicle: saline
  T/C: 111 % of control
endpoint: mean survival time, dose: 12.5 mg/kg/injection, schedule: Q01DX009 (ip), vehicle: saline
  T/C: 118 % of control and 121 % of control
endpoint: mean survival time, dose: 25.0 mg/kg/injection, schedule: Q01DX009 (ip), vehicle: saline
  T/C: 105 % of control

## CN1N(C(O)C(Cl)(Cl)Cl)C12CCCCC2 (stereo not given)
endpoint: mean survival time, dose: 12.0 mg/kg/injection, schedule: Q01DX001 (ip), vehicle: carboxymethylcellulose (CMC)
  T/C: 94 % of control
endpoint: mean survival time, dose: 25.0 mg/kg/injection, schedule: Q01DX001 (ip), vehicle: carboxymethylcellulose (CMC)
  T/C: 97 % of control
[1]
  T/C: 95 % of control
[2]
  T/C: 95 % of control

## CC([N+](=O)[O-])S(C)(=O)=O (stereo not given)
endpoint: mean survival time, dose: 100.0 mg/kg/injection, schedule: Q01DX001 (ip), vehicle: saline with Tween-80
  T/C: 97 % of control
endpoint: mean survival time, dose: 200.0 mg/kg/injection, schedule: Q01DX001 (ip), vehicle: saline with Tween-80
  T/C: 101 % of control
endpoint: mean survival time, dose: 400.0 mg/kg/injection, schedule: Q01DX001 (ip), vehicle: saline with Tween-80
  T/C: 101 % of control

## O=C(O)c1cccc2c1oc1ccccc12
endpoint: mean survival time, dose: 100.0 mg/kg/injection, schedule: Q04DX002 (ip), vehicle: saline with Tween-80
  T/C: 94 % of control
endpoint: mean survival time, dose: 200.0 mg/kg/injection, schedule: Q04DX002 (ip), vehicle: saline with Tween-80
  T/C: 94 % of control
endpoint: mean survival time, dose: 400.0 mg/kg/injection, schedule: Q04DX002 (ip), vehicle: saline with Tween-80
  T/C: 102 % of control

## CC[n+]1ccc(Nc2ccc(NC(=O)c3ccc(Nc4cc[n+](CC)c5ccc(N)cc45)cc3)cc2)cc1
endpoint: mean survival time, dose: 0.25 mg/kg/injection, schedule: Q01DX009 (ip), vehicle: saline
  T/C: 109 % of control
endpoint: mean survival time, dose: 0.5 mg/kg/injection, schedule: Q01DX009 (ip), vehicle: water
  T/C: 153 % of control
endpoint: mean survival time, dose: 1.0 mg/kg/injection, schedule: Q01DX009 (ip), vehicle: saline
  T/C: 154 % of control
endpoint: mean survival time, dose: 1.0 mg/kg/injection, schedule: Q01DX009 (ip), vehicle: water
  T/C: 228 % of control
endpoint: mean survival time, dose: 2.0 mg/kg/injection, schedule: Q01DX009 (ip), vehicle: saline
  T/C: 243 % of control
endpoint: mean survival time, dose: 2.0 mg/kg/injection, schedule: Q01DX009 (ip), vehicle: water
  T/C: 224 % of control
endpoint: mean survival time, dose: 4.0 mg/kg/injection, schedule: Q01DX009 (ip), vehicle: water
  T/C: 115 % of control

## CCCCCCCCCCCCCCCCCC[Se][Se]CCCCCCCCCCCCCCCCCC
endpoint: mean survival time, dose: 25.0 mg/kg/injection, schedule: Q04DX003 (ip), vehicle: saline with Tween-80
  T/C: 93 % of control
endpoint: mean survival time, dose: 50.0 mg/kg/injection, schedule: Q04DX003 (ip), vehicle: saline with Tween-80
  T/C: 95 % of control
endpoint: mean survival time, dose: 100.0 mg/kg/injection, schedule: Q04DX003 (ip), vehicle: saline with Tween-80
  T/C: 95 % of control

## O=C1CN(CCN2CC(=O)N(CN3CCOCC3)C(=O)C2)CC(=O)N1CN1CCOCC1
endpoint: median survival time, dose: 12.5 mg/kg/injection, schedule: Q01DX009 (ip), vehicle: water
  T/C: 111 % of control
endpoint: median survival time, dose: 25.0 mg/kg/injection, schedule: Q01DX009 (ip), vehicle: water
  T/C: 118 % of control
endpoint: median survival time, dose: 50.0 mg/kg/injection, schedule: Q01DX009 (ip), vehicle: water
  T/C: 164 % of control
endpoint: median survival time, dose: 100.0 mg/kg/injection, schedule: Q01DX009 (ip), vehicle: water
  T/C: 181 % of control and 188 % of control
endpoint: median survival time, dose: 200.0 mg/kg/injection, schedule: Q01DX009 (ip), vehicle: water
  T/C: 97 % of control and 111 % of control

## O=[N+]([O-])c1ccc2ncccc2c1
endpoint: mean survival time, dose: 25.0 mg/kg/injection, schedule: Q01DX009 (ip), vehicle: other
  T/C: 101 % of control
endpoint: mean survival time, dose: 50.0 mg/kg/injection, schedule: Q01DX009 (ip), vehicle: other
  T/C: 105 % of control
endpoint: mean survival time, dose: 100.0 mg/kg/injection, schedule: Q01DX009 (ip), vehicle: other
  T/C: 104 % of control

## O=[N+]([O-])c1ccc2c(c1)-c1ccccc1/C2=N\O
[1]
  T/C: 98 % of control
[2]
  T/C: 104 % of control
endpoint: mean survival time, dose: 200.0 mg/kg/injection, schedule: Q01DX001 (ip), vehicle: carboxymethylcellulose (CMC)
  T/C: 111 % of control
endpoint: mean survival time, dose: 400.0 mg/kg/injection, schedule: Q01DX001 (ip), vehicle: carboxymethylcellulose (CMC)
  T/C: 104 % of control
